Values after ≈ are worked out from the molar mass of the structure shown.
Legend:
[1] = human plasma; cited from earlier work
[2] = murine plasma; cited from earlier work
[3] = Solubility of docetaxel in trehalose or water; assay type: physicochemical

| solubility [3] [µM] | SMILES | half life [1] | in vitro half life [2] [min] |
| --- | --- | --- | --- |
|  | C/C1=C/C[C@@H](/C(C)=C/c2csc(C)n2)OC(=O)C[C@H](O)C(C)(C)C(=O)[C@H](C)[C@@H](O)[C@@H](C)CCC1 [desoxy-epothilone B] | around 3 h | ~20 |
| ~20 (≈ 16.2 µg/mL) | CC(=O)O[C@@]12CO[C@@H]1C[C@H](O)[C@@]1(C)C(=O)[C@H](O)C3=C(C)[C@@H](OC(=O)[C@H](O)[C@@H](NC(=O)OC(C)(C)C)c4ccccc4)C[C@@](O)([C@@H](OC(=O)c4ccccc4)[C@H]21)C3(C)C [docetaxel] |  |  |
